Experimental data from ChEMBL document CHEMBL3588788, “Structure-activity relationship of hybrids of Cinchona alkaloids and bile acids with in vitro antiplasmodial and antitrypanosomal activities” (Eur J Med Chem, 2015).

Legend:
in vitro = conditions: human, WI38 cells
Description: Selectivity index, ratio of IC50 against human WI38 cells to IC50 for Trypanosoma brucei brucei Lister 427 bloodstream forms

[1] = Selectivity index, ratio of IC50 against human WI38 cells to IC50 for Plasmodium falciparum 3D7; format: toxicity, cell-based, WI-38; conditions: read-out: Ratio IC50
Plasmodium falciparum [2] = assay: Potency index, ratio of IC50 for CND to IC50 for test compound against Plasmodium falciparum 3D7 by parasite lactate dehydrogenase assay; format: functional
[3] = system: Trypanosoma brucei brucei; assay: Potency index, ratio of IC50 for CND to IC50 for test compound against Trypanosoma brucei brucei Lister 427 bloodstream forms by microtiter plate based assay; format: functional
[4] = system: Trypanosoma brucei brucei; assay: Antitrypanosomal activity against Trypanosoma brucei brucei Lister 427 bloodstream forms by microtiter plate based assay; format: functional, organism-based
[5] = Cytotoxicity against human WI38 cells by MTT assay; format: cell-based, WI-38; conditions: Homo sapiens, WI-38; read-out: IC50
Plasmodium falciparum [6] = assay: Antiplasmodial activity against Plasmodium falciparum 3D7 assessed as reduction in parasite viability by parasite lactate dehydrogenase assay; format: functional, organism-based

## C=C[C@H]1CN2CC[C@H]1C[C@H]2[C@H](O)c1cc(CC[C@@H](C)[C@H]2CC[C@H]3[C@@H]4[C@H](O)C[C@@H]5C[C@H](O)CC[C@]5(C)[C@H]4C[C@H](O)[C@]23C)nc2ccccc12
In vitro
  selectivity ratio: 4.6
[1]
  selectivity ratio: 4
Plasmodium falciparum [2]
  Ratio IC50: 0.5
[3]
  Ratio IC50: 35.6
[4]
  IC50: 1750 nM
[5]
  IC50: 8090 nM
Plasmodium falciparum [6]
  IC50: 1800 nM

## C=C[C@H]1CN2CC[C@H]1C[C@H]2[C@H](O)c1cc(CC[C@@H](C)[C@H]2CC[C@H]3[C@@H]4[C@H](OC(C)=O)C[C@@H]5C[C@H](OC(C)=O)CC[C@]5(C)[C@H]4C[C@H](OC(C)=O)[C@]23C)nc2ccccc12
In vitro
  selectivity ratio: 4.6
[1]
  selectivity ratio: 165
Plasmodium falciparum [2]
  Ratio IC50: 23.7
[3]
  Ratio IC50: 42.4
[4]
  IC50: 1470 nM
[5]
  IC50: 6700 nM
Plasmodium falciparum [6]
  IC50: 40.6 nM

## C=C[C@H]1CN2CC[C@H]1C[C@H]2[C@H](O)c1cc(CC[C@@H](C)[C@H]2CC[C@H]3[C@@H]4C[C@H](O)[C@@H]5C[C@H](O)CC[C@]5(C)[C@H]4CC[C@]23C)nc2ccccc12
In vitro
  selectivity ratio: 6.2
[1]
  selectivity ratio: 36
Plasmodium falciparum [2]
  Ratio IC50: 10.5
[3]
  Ratio IC50: 116.7
[4]
  IC50: 530 nM
[5]
  IC50: 3280 nM
Plasmodium falciparum [6]
  IC50: 92.1 nM

## C=C[C@H]1CN2CC[C@H]1C[C@H]2[C@H](O)c1cc(CC[C@@H](C)[C@H]2CC[C@H]3[C@@H]4[C@H](OC(C)=O)[C@H](OC(C)=O)[C@@H]5C[C@H](OC(C)=O)CC[C@]5(C)[C@H]4CC[C@]23C)nc2ccccc12
In vitro
  selectivity ratio: 7.2
[1]
  selectivity ratio: 104
Plasmodium falciparum [2]
  Ratio IC50: 26.6
[3]
  Ratio IC50: 119.8
[4]
  IC50: 520 nM
[5]
  IC50: 3750 nM
Plasmodium falciparum [6]
  IC50: 36.1 nM

## C=C[C@H]1CN2CC[C@H]1C[C@H]2[C@H](O)c1cc(CC[C@@H](C)[C@H]2CC[C@H]3[C@@H]4C[C@H](OC(C)=O)[C@@H]5C[C@H](OC(C)=O)CC[C@]5(C)[C@H]4CC[C@]23C)nc2ccccc12
In vitro
  selectivity ratio: 3.5
[1]
  selectivity ratio: 36
Plasmodium falciparum [2]
  Ratio IC50: 8.3
[3]
  Ratio IC50: 52.5
[4]
  IC50: 1180 nM
[5]
  IC50: 4160 nM
Plasmodium falciparum [6]
  IC50: 115 nM

## C=C[C@H]1CN2CC[C@H]1C[C@H]2[C@H](O)c1cc(CC[C@@H](C)[C@H]2CC[C@H]3[C@@H]4[C@H](O)[C@H](O)[C@@H]5C[C@H](O)CC[C@]5(C)[C@H]4CC[C@]23C)nc2ccccc12
In vitro
  selectivity ratio: 8.6
[1]
  selectivity ratio: 14
Plasmodium falciparum [2]
  Ratio IC50: 2.5
[3]
  Ratio IC50: 100.5
[4]
  IC50: 620 nM
[5]
  IC50: 5320 nM
Plasmodium falciparum [6]
  IC50: 392 nM
